Each structure is given as a SMILES string. Values joined by “and” are separate entries in the source; they are usually repeats but may differ in a detail not shown here. Identical values can stand only once.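 1) Cells in 96-well plates. 2) Compound, 48 h, 5 concentrations. 3) Linear interpolation between surrounding doses. 4) Unreached endpoint = highest concentration. GI50 = concentration required for 50% inhibition of growth. At the TGI there is no net growth.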

This assay concerns MDA-MB-468 breast. Briefly: DTP human tumour cell line panel, 48 h.
A word on the GI50: it is the concentration at which growth is held to half of that of the control. What is called TGI is the concentration giving total growth inhibition. Low readings indicate more potent growth arrest, high ones less potent growth arrest. Turning to `COc1cccc(/C=C/C(=O)c2cccc(Nc3nc(Nc4ccccc4)nc(Nc4ccccc4)n3)c2)c1`, the GI50 was 2.5 µM and the TGI amounted to 11.3 µM.
As to `CC1SC(c2c(Cl)cccc2Cl)N(NC(=O)c2[nH]c3ccc(F)cc3c2-c2ccccc2)C1=O` (centres undefined), the GI50 was 3.72 µM and the concentration for total growth inhibition (TGI) was 29.9 µM.
The matching figures for `CCN(CC)c1ccc(C(=C2C=CC(=[N+](CC)Cc3cccc(S(=O)(=O)O)c3)C=C2)c2ccc(N(CC)Cc3cccc(S(=O)(=O)O)c3)cc2)cc1`: 2.58 µM and 15.9 µM.
For `COC(=O)[C@]12CC[C@@H](C)[C@H](C)[C@@H]1C1=CC[C@@H]3[C@@]4(C)C[C@@H](OC(C)=O)[C@H](O)[C@@](C)(COC(C)=O)[C@@H]4[C@H](O)C[C@@]3(C)[C@]1(C)CC2`, the GI50 was 2.33 µM and the TGI was 7.27 µM.
The matching figures for `CN1CCN(CCc2cccc(C(=O)c3cnn(-c4ccc(F)cc4)c3N)c2)CC1`: over 25 µM and over 25 µM.
The matching figures for `N#Cc1cnc2cc(OC[C@H](O)CO)c(NC(=O)CC3CSSC3)cc2c1Nc1ccc(OCc2cccc(F)c2)c(Cl)c1`: 0.118 µM and 0.363 µM.
With `COc1cc(Cl)cc(-c2nn(C(=O)NCCN3CCOCC3)cc2-c2ccncc2)c1`, the GI50 is 2 µM and the TGI amounted to 11.5 µM.
The matching figures for `COC1(C(=O)N[C@@H](C)c2ccc(-n3cc(F)cn3)nc2)CCC(c2nc(C)cc(Nc3cc(C)[nH]n3)n2)CC1` (some centres undefined): 1.98 µM and 6.96 µM.
In the case of `CNC(=O)n1ccc2cc(Oc3ccnc(NC(=O)c4ccc(C5CCN(CCO)CC5)cc4)c3)c(OCCOC)cc21`, the GI50 was 1.99 µM and the TGI stood at 4.22 µM.
The matching figures for `CCCCCn1c(=N)n(CC(O)COc2cccc(C)c2)c2ccccc21` (centres undefined): 2.38 µM and 5.29 µM.
As for `Nc1c(C(=O)Nc2cccc([N+](=O)[O-])c2)sc2nc3c(cc12)C(O)CCC3` (centres undefined), the GI50 was 2.11 µM and the TGI was over 100 µM.
The matching figures for `CC(C)(C)C[C@H]1NC(C(=O)NCC[C@H](O)CO)[C@H](c2cccc(Cl)c2)[C@@]12C(=O)Nc1cc(Cl)c(F)cc12` (some centres undefined): 12.4 µM and 27.3 µM.
The matching figures for `CCN1C(=O)N(CC)C2C1NN=c1s/c(=C\c3cccnc3)c(=O)n12` (centres undefined): 0.363 µM and over 100 µM.
The matching figures for `C[C@@H](C(=O)Nc1ccc(Cl)cc1)C1CCC(c2ccnc3ccc(F)cc23)CC1` (some centres undefined): 2.7 µM and 14.1 µM.
With `COC(=O)[C@@H](C)C[C@H](Cc1ccccc1)NC(=O)c1nc([C@@H](C[C@H](C(C)C)N(C)C(=O)[C@@H](NC(=O)[C@H]2CCCCN2C)C(C)C)OC(C)=O)sc1C`, the 50% growth inhibitory concentration (GI50) is under 0.00167 µM and the TGI was over 16.7 µM.
The matching figures for `Cc1[c-]onc1C.Cc1[c-]onc1C.[Ag].[Ag].[NH-]S(=O)(=O)c1ccc(N=Nc2cc(N=Nc3ccc(S([NH-])(=O)=O)cc3)c3c(NC(=O)C(Cl)Cl)cccc3c2OC(=O)C(Cl)Cl)cc1`: 1.92 µM and 8.48 µM.
In the case of `C[C@H](Nc1ncnc2nc[nH]c12)c1cc2cccc(Cl)c2c(=O)n1-c1ccccc1`, the GI50 is 1.55 µM and the TGI is 22.9 µM.
The matching figures for `COc1ccc2c(c1)O/C(=C\c1cccc(OCC(=O)Nc3nc4c(s3)CCCC4)c1)C2=O`: 1.71 µM and 48.4 µM.
On to `O=CNc1c(Cl)cc2c(c1Cl)Cc1cc([N+](=O)[O-])ccc1-2`, for which the GI50 is 0.317 µM and the TGI was determined as 1.27 µM.
On to `CCN(CC)S(=O)(=O)c1ccc(OC)c(Nc2ncc(-c3ccccc3)o2)c1`, for which the GI50 is over 10.4 µM and the concentration for total growth inhibition (TGI) is over 25 µM.
The matching figures for `O=C1OC(=O)C(c2c[nH]c3ccccc23)=C1c1c[nH]c2ccccc12`: over 19.3 µM and over 25 µM.
The matching figures for `C=C1C(=O)O[C@H]2[C@H]1CC/C(COC(=O)NCc1ccccc1OC)=C\CC[C@@]1(C)O[C@@H]21`: 0.669 µM and 2.8 µM.
In the case of `Cc1c(C(=O)/C=C/c2csc3ccccc23)[n+](=O)c2ccccc2n1[O-]`, the GI50 is 1.71 µM and the TGI worked out at 3.6 µM.
On to `COc1c(CCC[P+](c2ccccc2)(c2ccccc2)c2ccccc2)cc2c(c1OC)OCO2`, for which the GI50 was 0.256 µM and the TGI came out at 1.18 µM.
For `Cc1ccc(/C=C2\CN(C(=O)OC(C)(C)C)C/C(=C\c3ccc(C)cc3)C2=O)cc1`, the GI50 was 0.0878 µM and the TGI was over 100 µM.
The matching figures for `ClCCn1c(CCl)nc2ccc(Cl)cc21`: 1.68 µM and 3.42 µM.
In the case of `COc1cc(C2c3cc4c(cc3OC(N3CCCC3)C2C)OCO4)cc(OC)c1OC` (centres undefined), the GI50 is 0.416 µM and the total growth inhibition concentration (TGI) worked out at 54.8 µM.
As for `O=S(=O)(NC1CC2CCC1C2)c1ccc2c(c1)C(=NO)c1cc(S(=O)(=O)NC3CC4CCC3C4)ccc1-2` (centres undefined), the GI50 was 0.327 µM and the TGI was determined as 1.09 µM.
Consider `COC(=O)/C=C/C=C(c1ccccc1)c1ccccc1`, for which the GI50 is 3.47 µM and the TGI turned out to be 18.7 µM.
On to `CC(C)NC[C@@H](C(=O)N1CCN(c2ncnc3c2[C@H](C)C[C@H]3O)CC1)c1ccc(Cl)cc1`, for which the GI50 is 0.112 µM and 0.134 µM; the concentration for total growth inhibition (TGI) is 0.582 µM and 2.19 µM.
Take `O=C(CCCCCCNC(=O)C(O)(O)C(F)(F)F)Nc1ccc(-c2ccccc2)cc1`: the GI50 is 0.861 µM and the TGI stood at 3.1 µM.
The matching figures for `C=CCc1c2c(c(OC)c3ccoc13)C(=O)/C(=C/c1ccccc1OC)O2`: 2.46 µM and 7.85 µM.
The matching figures for `COC(=O)[C@H](Cc1cn(C)cn1)NC(=O)[C@H](Cc1c[nH]c2ccccc12)NC(=O)Nc1cc(C(F)(F)F)cc(C(F)(F)F)c1`: over 10 µM and over 10 µM.
The matching figures for `COc1ccc(C(=O)/C=C/c2ccc(/C=C/c3cc(OC)c(OC)c(OC)c3)cc2)cc1`: 3.39 µM and 48.7 µM.
As to `CCN(Cc1ccc(F)c(F)c1)c1ccc(CO)c(Cl)c1`, the GI50 is 0.0162 µM and the TGI was found to be 0.0438 µM.
The matching figures for `Cc1ccc2c(ccc3c[n+]4c5ccccc5ccc4n32)c1`: 0.541 µM and 2.47 µM.
`CNC(=O)c1cncc(/C=C/c2ccccc2C)c1`: the GI50 was over 25 µM and the TGI was over 25 µM.

Source of the values: PubChem BioAssay (NCI).
